5 molecules from ChEMBL document CHEMBL4052691, “Discovery of BMS-961955, an allosteric inhibitor of the hepatitis C virus NS5B polymerase” (Bioorg Med Chem Lett, 2017) can be followed below.

Series [1] can be described thus: Oral bioavailability rat at 10 mg/kg. The class given is ADME, organism-based. Conditions: in vivo.
Series [2] concerns Rattus norvegicus. In words: (§1) AUC (0 to 6 hrs) in rat at 5 mg/kg, iv. The class given is ADME, organism-based. Further details: dose 5 mg/kg, time < 6 hr, route intravenous. To be noted: in vivo, 6 h.
Series [3] is described as follows: Apparent permeability of the compound at pH 5.5 by PAMPA. The class given is physicochemical. Background: PAMPA measures passive passage across an artificial lipid membrane.
Series [4] in a line: Apparent permeability of the compound at pH 7.4 by PAMPA. The class given is physicochemical.
The nature of series [5]: AUC (0 to 24 hrs) in rat at 5 mg/kg, iv. Conditions: in vivo. Further details: time < 24 hr, dose 5 mg/kg, route intravenous. The class given is ADME, organism-based.
Series [6] in a line: Volume of distribution at steady state in rat at 5 mg/kg, iv. The class given is ADME, organism-based. Conditions: in vivo, read-out: Vdss.
The nature of series [7]: AUC (0 to 24 hrs) in rat at 10 mg/kg, iv. The class given is ADME, organism-based. Further details: dose 10 mg/kg, time < 24 hr, route intravenous. To be noted: in vivo.
Series [8] is described as follows: AUC (0 to 24 hrs) in dog at 1 mg/kg, iv. Also on record: time < 24 hr, dose 1 mg/kg, route intravenous. Conditions: in vivo. The class given is ADME, organism-based, Canis lupus familiaris.
Series [9] can be described thus: AUC (0 to 24 hrs) in dog at 3 mg/kg, po. The class given is ADME, organism-based, Canis lupus familiaris. Further details: time < 24 hr, dose 3 mg/kg, route oral. Conditions: in vivo.
Series [10] in a line: Volume of distribution at steady state in dog at 1 mg/kg, iv. Conditions: in vivo, read-out: Vdss. The class given is ADME, organism-based, Canis lupus familiaris.
A short description of series [11]: Oral bioavailability in dog at 3 mg/kg. The class given is ADME, organism-based, Canis lupus familiaris. To be noted: in vivo.
Series [12] can be described thus: AUC (0 to 24 hrs) in cynomolgus monkey at 1 mg/kg, iv. Further details: dose 1 mg/kg, time < 24 hr, route intravenous. To be noted: in vivo. The class given is ADME, organism-based, Macaca fascicularis.
Series [13] is described as follows: AUC (0 to 24 hrs) in cynomolgus monkey at 3 mg/kg, […]. The class given is ADME, organism-based, Macaca fascicularis. Further details: dose 3 mg/kg, time < 24 hr. To be noted: in vivo.
Series [14] can be described thus: Volume of distribution at steady state in cynomolgus monkey at 1 mg/kg, iv. The class given is ADME, organism-based, Macaca fascicularis. To be noted: in vivo, read-out: Vdss.
Series [15] in a line: Oral bioavailability in cynomolgus monkey at 3 mg/kg. The class given is ADME, organism-based, Macaca fascicularis. Conditions: in vivo.
A short description of series [16]: as §1. The class given is ADME, organism-based. Conditions: in vivo. Further details: dose 5 mg/kg, time < 6 hr, route intravenous.

The structures appear in SMILES notation.

In turn, `CN1CC2CCC(C1)N2C(=O)[C@]12C[C@H]1c1cc(F)ccc1-c1c(C3CCCCC3)c3ccc(C(=O)NS(=O)(=O)N4CCC4)cc3n1C2` returned a bioavailability in series [1] of 19%. The molecule further registered an AUC in series [2] of 0.5 µM·h.

With `CN1CC2CCC(C1)N2C(=O)[C@]12C[C@H]1c1cc(F)ccc1-c1c(C3CCCCC3)c3ccc(C(=O)NS(=O)(=O)C4(C)CC4)cc3n1C2`, the Papp came to 52.3 ×10⁻⁶ cm/s in [3] and 59 ×10⁻⁶ cm/s in [4]. Also, the AUC(0-t) at 24 h is 12.3 to 12.4 µM·h in series [5]; 12.4 µM·h in series [7]; 25.7 µM·h in series [8]; 62.1 µM·h in [9]; 2.3 µM·h in series [12]; 3.1 µM·h in series [13]. In addition, the bioavailability stood at 52% in [1], 84% in [11] and 48% in series [15]. The Vd in series [6] was determined as 3.9 L/kg; in [10] it was 0.6 L/kg; in [14] it was 3.1 L/kg.

Take `CN1CC2CCC(C1)N2C(=O)[C@]12C[C@H]1c1cc(F)ccc1-c1c(C3CCCCC3)c3ccc(C(=O)NS(=O)(=O)C(C)(C)C)cc3n1C2`: the figures for the Papp in series [3] and in series [4] were 13.5 ×10⁻⁶ cm/s and 23.8 ×10⁻⁶ cm/s, respectively. In addition, the bioavailability in [1] was 8%. The molecule also showed an AUC(0-t) at 6 h in series [16] of 1.3 µM·h.

The molecule `CCS(=O)(=O)NC(=O)c1ccc2c(C3CCCCC3)c3n(c2c1)C[C@@]1(C(=O)N2C4CCC2CN(C)C4)C[C@H]1c1cc(F)ccc1-3` displayed an AUC(0-t) at 24 h in [5] of 0.857 µM·h. This molecule also came in with a bioavailability in series [1] of 13.6%.

The molecule `CN1CC2CCC(C1)N2C(=O)[C@]12C[C@H]1c1cc(F)ccc1-c1c(C3CCCCC3)c3ccc(C(=O)NS(=O)(=O)C4CC4)cc3n1C2` showed an AUC(0-t) at 24 h in [5] of 1.51 µM·h. For the same molecule, in series [1], the bioavailability came to 23%.

In general, bioavailability refers to dose-corrected exposure relative to a reference, in per cent. A word on the AUC: it is concentration integrated over time. As a reminder, the Papp is a coefficient for how fast a substance crosses the barrier. A word on the AUC(0-t): it is the area under the concentration-time curve up to a stated or last time point.
